Assay results from patent US9321756B2, “Azole compounds as PIM inhibitors” (priority 2011, dated 2016).
Read-outs that look alike come from different tables or passages of the source.

Experiments:
[1] = target: full length recombinant Pim-1 (Homo sapiens (Human), UniProt P11309); experiment: Pim enzyme assay (HTRF, phosphorylation of biotinylated-BAD (S112) peptide), Pim-1; format: biochemical; settings: Pim-1 enzyme assay; read-out: Pim_1_IC50
[2] = system: Pim-2 stably transfected U2OS human osteogenic sarcoma line; experiment: Pim cell assay U2OS (phospho-BAD normalized against total BAD), Pim-2 transfected; format: cell-based; settings: Homo sapiens; U2OS cells, Pim-2 transfected; read-out: U2OS Pim2_Cell_IC50
[3] = target: full length recombinant Pim-2 (Homo sapiens (Human), UniProt Q9P1W9); experiment: Pim enzyme assay (HTRF, phosphorylation of biotinylated-BAD (S112) peptide), Pim-2; format: biochemical; settings: Pim-2 enzyme assay; read-out: Pim2_IC50
Sequence of full length recombinant Pim-2 (Q9P1W9 whole entry): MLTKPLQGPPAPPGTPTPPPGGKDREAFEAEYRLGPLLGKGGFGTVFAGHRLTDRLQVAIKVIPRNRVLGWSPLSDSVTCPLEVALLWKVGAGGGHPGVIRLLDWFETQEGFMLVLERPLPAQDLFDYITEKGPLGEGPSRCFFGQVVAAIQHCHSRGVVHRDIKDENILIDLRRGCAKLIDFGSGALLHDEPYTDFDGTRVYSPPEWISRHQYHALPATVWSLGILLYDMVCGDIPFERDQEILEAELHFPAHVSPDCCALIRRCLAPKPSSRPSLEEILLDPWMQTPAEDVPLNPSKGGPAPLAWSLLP

[4] = system: Pim-1 stably transfected U2OS human osteogenic sarcoma line; experiment: Pim cell assay U2OS (phospho-BAD normalized against total BAD), Pim-1 transfected; format: cell-based; settings: Homo sapiens, U2OS
[5] = target: full length recombinant Pim-3 (Homo sapiens (Human), UniProt Q86V86); experiment: Pim enzyme assay (HTRF, phosphorylation of biotinylated-BAD (S112) peptide), Pim-3; format: biochemical; settings: Pim-3 enzyme assay; read-out: Pim3 IC50
Procedure, shortened: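 IC50 values were fitted with a 4-parameter logistic model to percent-of-control HTRF signal (Eu anti-phospho-BAD S112 antibody/streptavidin-APC). Reactions used full-length Pim-3 and biotin-BAD (S112) peptide, ran 1 h 30 min at RT (22 °C) in Hepes pH 7.0 buffer with BSA and DTT, and were stopped by 3 mM EDTA.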

[6] = read-out: U2OS Pim1_Cell_IC50, U2OS cells, Pim-1 transfected

Sequence of full length recombinant Pim-1 (P11309 whole entry): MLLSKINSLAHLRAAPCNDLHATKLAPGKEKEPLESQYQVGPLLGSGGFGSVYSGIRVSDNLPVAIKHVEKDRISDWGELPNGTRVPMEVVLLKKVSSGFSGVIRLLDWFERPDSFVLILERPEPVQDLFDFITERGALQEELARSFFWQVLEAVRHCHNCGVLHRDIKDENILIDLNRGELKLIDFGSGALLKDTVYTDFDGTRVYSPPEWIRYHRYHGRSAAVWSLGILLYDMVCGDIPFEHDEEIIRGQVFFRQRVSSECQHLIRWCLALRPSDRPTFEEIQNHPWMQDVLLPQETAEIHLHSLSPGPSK

Row | IC50 [1] | IC50 [3] | IC50 [5] | Structure (SMILES) | IC50 [2] | IC50 ([4]; read-out: U2OS Pim1_Cell_IC50) | IC50 [4, 6]
1 | 1.96 nM | 1.07 nM | 2.21 nM | C[C@H]1COCCN1c1ccnc(-c2c[nH]c3ccc(-c4nnc(N)o4)cc23)n1 [Example 91, 5-(3-(4-((3S)-3-methyl-4-morpholinyl)-2-pyrimidinyl)-1H-indol-5-yl)-1,3,4-oxadiazol-2-amine] | 1050 nM | 221 nM | 
2 | 5.19 nM | 0.984 nM | 0.998 nM | Nc1nnc(-c2ccc3[nH]cc(-c4nccc(C5CC5)n4)c3c2)o1 [Example 94, 5-(3-(4-cyclopropyl-2-pyrimidinyl)-1H-indol-5-yl)-1,3,4-oxadiazol-2-amine] | 280 nM |  | 75.2 nM
3 | 6.42 nM | 1.7 nM | 1.22 nM | CC1CCCN1c1ccnc(-c2c[nH]c3ccc(-c4nnc(N)o4)cc23)n1 (stereo not drawn) [Example 97, 5-(3-(4-(2-methyl-1-pyrrolidinyl)-2-pyrimidinyl)-1H-indol-5-yl)-1,3,4-oxadiazol-2-amine] | 315 nM | 100 nM | 
4 | 4.34 nM | 4.85 nM | 1.59 nM | Nc1nnc(-c2ccc3[nH]cc(-c4cncc(C5CC5)n4)c3c2)o1 [Example 98, 5-(3-(6-cyclopropyl-2-pyrazinyl)-1H-indol-5-yl)-1,3,4-oxadiazol-2-amine] | 721 nM | 85.7 nM | 
5 | 6.77 nM | 12.9 nM | 12.4 nM | Nc1nnc(-c2ccc3[nH]cc(-c4cncc(O[C@@H]5CCCNC5)n4)c3c2)o1 [Example 99, 5-(3-(6-((3R)-3-piperidinyloxy)-2-pyrazinyl)-1H-indol-5-yl)-1,3,4-oxadiazol-2-amine] | > 31600 nM |  | 12200 nM
6 | 1.16 nM | 2.07 nM | 0.668 nM | Nc1nnc(-c2ccc3[nH]cc(-c4cncc(NCC5CC5)n4)c3c2)o1 [Example 100, 6-(5-(5-amino-1,3,4-oxadiazol-2-yl)-1H-indol-3-yl)-N-(cyclopropylmethyl)-2-pyrazinamine] | 551 nM | 41.7 nM | 
7 | 1.5 nM | 4.03 nM | 0.901 nM | CC(C)Nc1cncc(-c2c[nH]c3ccc(-c4nnc(N)o4)cc23)n1 [Example 101, 6-(5-(5-amino-1,3,4-oxadiazol-2-yl)-1H-indol-3-yl)-N-(1-methylethyl)-2-pyrazinamine] | 809 nM |  | 66.4 nM
8 | 6.9 nM | 2.24 nM | 1.67 nM | CC(C)Nc1ccnc(-c2c[nH]c3ccc(-c4nnc(N)o4)cc23)n1 [Example 103, 2-(5-(5-amino-1,3,4-oxadiazol-2-yl)-1H-indol-3-yl)-N-(1-methylethyl)-4-pyrimidinamine] | 1220 nM | 739 nM | 
9 | 15.2 nM | 6.39 nM | 5.69 nM | Nc1nnc(-c2ccc3[nH]cc(-c4nccc(Oc5ccccc5)n4)c3c2)o1 [Example 106, 5-(3-(4-phenoxy-2-pyrimidinyl)-1H-indol-5-yl)-1,3,4-oxadiazol-2-amine] | 1190 nM | 155 nM | 
10 | 9.41 nM | 3.1 nM | 2.07 nM | Nc1nnc(-c2ccc3[nH]cc(-c4nccc(Nc5ccccc5)n4)c3c2)o1 [Example 108, 2-(5-(5-amino-1,3,4-oxadiazol-2-yl)-1H-indol-3-yl)-N-phenyl-4-pyrimidinamine] | 1410 nM | 711 nM | 
11 | 9.23 nM | 14 nM | 5.36 nM | Nc1nnc(-c2ccc3[nH]cc(-c4cncc(-c5ccccc5)n4)c3c2)o1 [Example 115, 5-(3-(6-phenyl-2-pyrazinyl)-1H-indol-5-yl)-1,3,4-oxadiazol-2-amine] | > 31600 nM | 105 nM | 
12 | 15.2 nM | 19.6 nM | 7.81 nM | Nc1nnc(-c2ccc3[nH]cc(-c4cncc(-c5ccccc5F)n4)c3c2)o1 [Example 116, 5-(3-(6-(2-fluorophenyl)-2-pyrazinyl)-1H-indol-5-yl)-1,3,4-oxadiazol-2-amine] | > 31600 nM |  | 224 nM
13 | 16.7 nM | 19.2 nM | 15.7 nM | Nc1nnc(-c2ccc3[nH]cc(-c4nccc(-c5ccccc5Cl)n4)c3c2)o1 [Example 118, 5-(3-(4-(2-chlorophenyl)-2-pyrimidinyl)-1H-indol-5-yl)-1,3,4-oxadiazol-2-amine] | > 31600 nM | 217 nM | 
14 | 6.07 nM | 10.7 nM | 2.15 nM | Nc1nnc(-c2ccc3[nH]cc(-c4cncc(-c5cccc(F)c5)n4)c3c2)o1 [Example 119, 5-(3-(6-(3-fluorophenyl)-2-pyrazinyl)-1H-indol-5-yl)-1,3,4-oxadiazol-2-amine] | > 31600 nM | 85 nM | 
15 | 9.41 nM | 22.9 nM | 4.23 nM | Nc1nnc(-c2ccc3[nH]cc(-c4cncc(-c5cccc(Cl)c5)n4)c3c2)o1 [Example 120, 5-(3-(6-(3-chlorophenyl)-2-pyrazinyl)-1H-indol-5-yl)-1,3,4-oxadiazol-2-amine] | > 31600 nM | 242 nM | 
16 | 19 nM | 34.6 nM | 5.54 nM | Cn1cc(-c2cncc(-c3c[nH]c4ccc(-c5nnc(N)o5)cc34)n2)cn1 [Example 121, 5-(3-(6-(1-methyl-1H-pyrazol-4-yl)-2-pyrazinyl)-1H-indol-5-yl)-1,3,4-oxadiazol-2-amine] | > 31600 nM | 3140 nM | 
17 | 6.85 nM | 3.87 nM | 2.4 nM | Nc1nnc(-c2ccc3[nH]cc(-c4nccc(-c5ccccc5)n4)c3c2)o1 [Example 122, 5-(3-(4-phenyl-2-pyrimidinyl)-1H-indol-5-yl)-1,3,4-oxadiazol-2-amine] | 831 nM |  | 132 nM
18 | 22.8 nM | 57 nM | 7.68 nM | CC(C)Oc1ccc(F)c(-c2c[nH]c3ccc(-c4nnc(N)o4)nc23)c1 [Example 125, 5-(3-(2-fluoro-5-(1-methylethoxy)phenyl)-1H-pyrrolo[3,2-b]pyridin-5-yl)-1,3,4-oxadiazol-2-amine] | 4430 nM |  | 109 nM
19 | 2.91 nM | 1.53 nM | 0.734 nM | CNc1nnc(-c2ccc3[nH]cc(-c4nccc(N5CCC[C@H](N)C5)n4)c3c2)s1 [Example 128, (3S)-1-(2-(5-(5-(methylamino)-1,3,4-thiadiazol-2-yl)-1H-indol-3-yl)-4-pyrimidinyl)-3-piperidinamine] | 15900 nM |  | 13800 nM
20 | 31.3 nM | 82.4 nM | 12.3 nM | CNc1nnc(-c2ccc3[nH]cc(-c4ccnc(N5CCOCC5)n4)c3c2)s1 [Example 129, N-methyl-5-(3-(2-(4-morpholinyl)-4-pyrimidinyl)-1H-indol-5-yl)-1,3,4-thiadiazol-2-amine] | > 31600 nM |  | 982 nM
21 | 39.6 nM | 39 nM | 20.5 nM | Nc1nnc(-c2ccc3[nH]cc(-c4cccc(-c5ccccc5)n4)c3c2)s1 [Example 130, 5-(3-(6-phenyl-2-pyridinyl)-1H-indol-5-yl)-1,3,4-thiadiazol-2-amine] | > 31600 nM | 7880 nM | 
22 | 11 nM | 33.6 nM | 3.98 nM | CNc1nnc(-c2ccc3[nH]cc(-c4nccc(N5CCN(C)CC5)n4)c3c2)s1 [Example 132, N-methyl-5-(3-(4-(4-methyl-1-piperazinyl)-2-pyrimidinyl)-1H-indol-5-yl)-1,3,4-thiadiazol-2-amine] | 6910 nM | 1470 nM | 
23 | 13.4 nM | 19.4 nM | 4 nM | Nc1nnc(-c2ccc3[nH]cc(-c4ccnc(N5CCOCC5)n4)c3c2)s1 [Example 133, 5-(3-(2-(4-morpholinyl)-4-pyrimidinyl)-1H-indol-5-yl)-1,3,4-thiadiazol-2-amine] | 8060 nM |  | 535 nM
24 | 38 nM | 16.3 nM | 12.3 nM | CNc1nnc(-c2ccc3[nH]cc(-c4nccc(N5CCOCC5)n4)c3c2)s1 [Example 134, N-methyl-5-(3-(4-(4-morpholinyl)-2-pyrimidinyl)-1H-indol-5-yl)-1,3,4-thiadiazol-2-amine] | 6110 nM |  | 1440 nM
25 | 86.1 nM | 59.7 nM | 32.7 nM | CNc1nnc(-c2ccc3[nH]cc(-c4nccc(N5CCCCC5)n4)c3c2)s1 [Example 135, N-methyl-5-(3-(4-(1-piperidinyl)-2-pyrimidinyl)-1H-indol-5-yl)-1,3,4-thiadiazol-2-amine] | > 31600 nM |  | 8440 nM
26 | 67.3 nM | 60 nM | 30.9 nM | Nc1nnc(-c2ccc3[nH]cc(-c4ccccc4F)c3c2)s1 [Example 136, 5-(3-(2-fluorophenyl)-1H-indol-5-yl)-1,3,4-thiadiazol-2-amine] | > 31600 nM |  | 3410 nM
27 | 103 nM | 144 nM | 17.5 nM | Nc1nnc(-c2ccc3[nH]cc(-c4ccc5nccnc5c4)c3c2)s1 [Example 151, 5-(3-(6-quinoxalinyl)-1H-indol-5-yl)-1,3,4-thiadiazol-2-amine] | > 31600 nM | 925 nM | 
